In patent US10328054B2, “Substituted pyrrolidines as mGluR5 antagonists” (Hua Medicine (Shanghai) Ltd., priority 2015, dated 2019):

Target: recombinant rat mGluR5 (Rattus norvegicus (Rat), UniProt P31424)
Assay: Functional calcium flux assay (FLIPR)
Format: cell-based
Conditions: HEK293 cells stably expressing recombinant rat mGluR5; inhibition of glutamate-evoked [Ca2+]i increase, 15 min incubation of test compound
Procedure: For functional assays, HEK293 cells stably expressing recombinant rat mGluR5 were seeded in 384-well plates and dye loaded using Fluo-8. Cells were then washed to remove the un-incorporated dye. Antagonist evaluation was performed following a 15 min incubation of the test compound followed by the addition of submaximal concentration of glutamate. Intracellular calcium ([Ca^2+]i) measurements were performed using a fluorometric imaging plate reader (FLIPR, Molecular Devices). The glutamate-evoked increase in [Ca^2+]i in the presence of the test compounds was compared to the response to glutamate alone (the positive control). Antagonist inhibition curves were fitted with a 4-parameter logistic equation giving IC50 values, and Hill coefficients using an iterative nonlinear curve fitting algorithm.
The tables below provide IC50 data in this assay. In the activity column, A=IC50>1,000 and <5,000 nM; B=IC50>500 and <1,000 nM and C=IC50<500 nM.

Sequence of recombinant rat mGluR5 (P31424 21-1203): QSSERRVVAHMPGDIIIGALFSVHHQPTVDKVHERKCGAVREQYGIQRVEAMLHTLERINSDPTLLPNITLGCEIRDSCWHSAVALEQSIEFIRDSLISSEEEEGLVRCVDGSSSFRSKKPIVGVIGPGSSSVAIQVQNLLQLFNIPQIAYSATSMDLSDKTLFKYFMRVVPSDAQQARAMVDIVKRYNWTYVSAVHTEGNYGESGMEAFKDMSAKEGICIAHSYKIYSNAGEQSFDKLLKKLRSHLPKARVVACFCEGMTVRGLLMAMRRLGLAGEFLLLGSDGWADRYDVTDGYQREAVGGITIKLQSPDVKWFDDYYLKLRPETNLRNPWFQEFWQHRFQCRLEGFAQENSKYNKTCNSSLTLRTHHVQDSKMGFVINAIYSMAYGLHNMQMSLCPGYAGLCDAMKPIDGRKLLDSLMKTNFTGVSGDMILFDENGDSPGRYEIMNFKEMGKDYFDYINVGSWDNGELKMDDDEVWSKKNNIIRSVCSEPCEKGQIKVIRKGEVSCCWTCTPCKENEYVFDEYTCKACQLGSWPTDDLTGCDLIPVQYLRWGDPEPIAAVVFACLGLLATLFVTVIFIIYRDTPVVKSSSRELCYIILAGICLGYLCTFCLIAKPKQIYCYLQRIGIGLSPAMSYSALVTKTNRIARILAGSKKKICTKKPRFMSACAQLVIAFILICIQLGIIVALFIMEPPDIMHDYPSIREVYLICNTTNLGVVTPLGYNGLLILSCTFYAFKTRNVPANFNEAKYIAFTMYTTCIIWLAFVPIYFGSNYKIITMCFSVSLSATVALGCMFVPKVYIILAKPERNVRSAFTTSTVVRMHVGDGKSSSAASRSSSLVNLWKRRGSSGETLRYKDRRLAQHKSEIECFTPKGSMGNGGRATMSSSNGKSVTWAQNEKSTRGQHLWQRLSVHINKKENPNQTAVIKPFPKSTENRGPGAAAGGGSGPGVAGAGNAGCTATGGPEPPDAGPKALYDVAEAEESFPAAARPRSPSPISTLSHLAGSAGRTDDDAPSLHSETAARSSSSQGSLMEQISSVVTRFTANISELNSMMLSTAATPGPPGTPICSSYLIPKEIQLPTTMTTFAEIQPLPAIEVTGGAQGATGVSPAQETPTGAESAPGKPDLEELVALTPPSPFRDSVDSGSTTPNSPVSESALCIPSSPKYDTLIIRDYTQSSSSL

Row | IC50 | Structure (SMILES)
1 | < 500 nM | Cc1cccc(C#CC23CC2CN(c2cncc(F)c2)C3)n1 (stereo not drawn) [Example Compound 43, 3-(5-fluoropyridin-3-yl)-1-((6-methylpyridin-2-yl)ethynyl)-3-azabicyclo[3.1.0]hexane]
2 | < 500 nM | Cc1cccc(C#CC23CC2CN(C(=O)c2cccc(F)c2)C3)n1 (stereo not drawn) [Example Compound 44, (3-fluorophenyl)-(1-((6-methylpyridin-2-yl)ethynyl)-3-azabicyclo[3.1.0]hexan-3-yl)methanone]
3 | < 500 nM | Fc1cc(F)cc(N2CC3CC3(C#Cc3ncccn3)C2)c1 (stereo not drawn) [Example Compound 45, 3-(3,5-difluorophenyl)-1-(pyrimidin-2-ylethynyl)-3-azabicyclo[3.1.0]hexane]
4 | < 500 nM | Fc1cccc(N2CC3CC3(C#Cc3ncccn3)C2)c1 (stereo not drawn) [Example Compound 46, 3-(3-fluorophenyl)-1-(pyrimidin-2-ylethynyl)-3-azabicyclo[3.1.0]hexane]
5 | < 500 nM | Cc1nc(C#CC23CC2CN(c2cccc(C#N)c2)C3)cs1 (stereo not drawn) [Example Compound 47, 3-(1-((2-methylthiazol-4-yl)ethynyl)-3-azabicyclo[3.1.0]hexan-3-yl)benzonitrile]
6 | < 500 nM | Cc1nc(C#CC23CC2CN(c2cncc(F)c2)C3)cs1 (stereo not drawn) [Example Compound 48, 4-((3-(S-fluoropyridin-3-yl)-3-azabicyclo[3.1.0]hexan-1-yl)ethynyl)-2-methylthiazole]
7 | < 500 nM | Cc1nc(C#CC23CC2CN(C(=O)c2cccc(Cl)c2)C3)cs1 (stereo not drawn) [Example Compound 49, (3-chlorophenyl)-(1-((2-methylthiazol-4-yl)ethynyl)-3-azabicyclo[3.1.0]hexan-3-yl)methanone]
8 | < 500 nM | N#Cc1cncc(N2CC3CC3(C#Cc3ccccn3)C2)c1 (stereo not drawn) [Example Compound 50, S-(1-(pyridin-2-ylethynyl)-3-azabicyclo[3.1.0]hexan-3-yl)nicotinonitrile]
9 | < 500 nM | O=C(C1CCCC1)N1C[C@H]2C[C@@]2(C#Cc2ccccn2)C1 [Example Compound 51, cyclopentyl((1R,5S)-1-(pyridin-2-ylethynyl)-3-azabicyclo[3.1.0]hexan-3-yl)methanone]
10 | < 500 nM | CC(C)(C)C(=O)N1C[C@H]2C[C@@]2(C#Cc2ccccn2)C1 [Example Compound 52, 2,2-dimethyl-1-((1R,5S)-1-(pyridin-2-ylethynyl)-3-azabicyclo[3.1.0]hexan-3-yl)propan-1-one]
11 | < 500 nM | COC(=O)N1CC2CC2(C#Cc2ccccn2)C1 (stereo not drawn) [Example Compound 53, methyl 1-(pyridin-2-ylethynyl)-3-azabicyclo[3.1.0]hexane-3-carboxylate]
12 | < 500 nM | O=C(c1cncc(Cl)c1)N1C[C@H]2C[C@@]2(C#Cc2ccccn2)C1 [Example Compound 54, (5-chloropyridin-3-yl)((1R,5S)-1-(pyridin-2-ylethynyl)-3-azabicyclo[3.1.0]hexan-3-yl)methanone]
13 | < 500 nM | O=C(c1cc(Cl)ccn1)N1CC2CC2(C#Cc2ccccn2)C1 (stereo not drawn) [Example Compound 55, (4-chloropyridin-2-yl)-(1-(pyridin-2-ylethynyl)-3-azabicyclo[3.1.0]hexan-3-yl)methanone]
14 | < 500 nM | O=C(c1ccc(Cl)nc1)N1CC2CC2(C#Cc2ccccn2)C1 (stereo not drawn) [Example Compound 56, (6-chloropyridin-3-yl)-(1-(pyridin-2-ylethynyl)-3-azabicyclo[3.1.0]hexan-3-yl)methanone]
15 | 500 to 1000 nM | O=C(Nc1ccccc1)N1CC2CC2(C#Cc2ccccn2)C1 (stereo not drawn) [Example Compound 57, N-phenyl-1-(pyridin-2-ylethynyl)-3-azabicyclo[3.1.0]hexane-3-carboxamide]
16 | < 500 nM | CCCNC(=O)N1C[C@H]2C[C@@]2(C#Cc2ccccn2)C1 [Example Compound 58, (1R,5S)—N-propyl-1-(pyridin-2-ylethynyl)-3-azabicyclo[3.1.0]hexane-3-carboxamide]
17 | < 500 nM | O=C(N1CCCC1)N1CC2CC2(C#Cc2ccccn2)C1 (stereo not drawn) [Example Compound 59, (1-(pyridin-2-ylethynyl)-3-azabicyclo[3.1.0]hexan-3-yl)(pyrrolidin-1-yl)methanone]
18 | < 500 nM | O=C(NCC(F)(F)F)N1CC2CC2(C#Cc2ccccn2)C1 (stereo not drawn) [Example Compound 60, 1-(pyridin-2-yl-ethynyl)-N-(2,2,2-trifluoroethyl)-3-azabicyclo[3.1.0]hexane-3-carboxamide]
19 | 500 to 1000 nM | O=C(c1cccc(Cl)c1)N1CC2CC2(C#Cc2ncccn2)C1 (stereo not drawn) [Example Compound 61, (3-chlorophenyl)-(1-(pyrimidin-2-ylethynyl)-3-azabicyclo[3.1.0]hexan-3-yl)methanone]
20 | < 500 nM | N#Cc1cccc(N2CC3CC3(C#Cc3ncccn3)C2)c1 (stereo not drawn) [Example Compound 62, 3-(1-(pyrimidin-2-ylethynyl)-3-azabicyclo[3.1.0]hexan-3-yl)benzonitrile]
21 | < 500 nM | Fc1cncc(N2CC3CC3(C#Cc3ncccn3)C2)c1 (stereo not drawn) [Example Compound 63, 3-(5-fluoropyridin-3-yl)-1-(pyrimidin-2-ylethynyl)-3-azabicyclo[3.1.0]hexane]
22 | < 500 nM | Cc1cccc(C#CC23CC2CN(C(=O)C(C)C)C3)n1 (stereo not drawn) [Example Compound 64, 2-methyl-1-(1-((6-methylpyridin-2-yl)ethynyl)-3-azabicyclo[3.1.0]hexan-3-yl)propan-1-one]
23 | < 500 nM | CC(C)C(=O)N1CC2CC2(C#Cc2cccc(Cl)n2)C1 (stereo not drawn) [Example Compound 65, 1-(1-((6-chloropyridin-2-yl)ethynyl)-3-azabicyclo[3.1.0]hexan-3-yl)-2-methylpropan-1-one]
24 | < 500 nM | Cc1nc(C#CC23CC2CN(C(=O)c2ccccc2)C3)cs1 (stereo not drawn) [Example Compound 66, (1-((2-methylthiazol-4-yl)ethynyl)-3-azabicyclo[3.1.0]hexan-3-yl)(phenyl)methanone]
25 | < 500 nM | CCCCC(=O)N1CC2CC2(C#Cc2csc(C)n2)C1 (stereo not drawn) [Example Compound 67, 1-(1-((2-mehylthyiazol-4-yl)ethynyl)-3-azabicyclo[3.1.0]hexan-3-yl)pentan-1-one]
26 | < 500 nM | Cc1nc(C#CC23CC2CN(C(=O)C(C)C)C3)cs1 (stereo not drawn) [Example Compound 68, 2-methyl-1-(1-((2-methylthiazol-4-yl)ethynyl)-3-azabicyclo[3.1.0]hexan-3-yl)propan-1-one]
27 | < 500 nM | Cc1nc(C#CC23CC2CN(C(=O)C(C)(C)C)C3)cs1 (stereo not drawn) [Example Compound 69, 2,2-dimethyl-1-(1-((2-methylthiazol-4-yl)ethynyl)-3-azabicyclo[3.1.0]hexan-3-yl)propan-1-one]
